# Assay results from patent US9877947B2, “C-terminal HSP90 inhibitors to treat pituitary adenomas” (priority 2013, dated 2018).
# Tests used:
# Format in all cases: cell-based
# [1] = system: GR (glucocorticoid receptor); experiment: Evaluation of GR activity (MTV-Luc reporter); conditions: AtT-20 cells, 72 hours, in combination with dexamethasone
# Procedure: AtT-20 cells were treated for 72 hours with different doses of (A) 17-AAG, (B) silibinin, or (C) novobiocin. At the end of the treatment, GR activity was measured by transfection of the reporter construct MTV-luc.
# AtT-20 cells (3×10^5) were transfected for 3 hours with 1 μg of the MTV-Luc reporter plasmid in 6-well plates. Cell transfection was performed with SuperFect (Qiagen GmbH). After an overnight incubation in culture medium with 10% fetal calf serum, the cells were treated with different HSP90 inhibitors in combination with dexamethasone. Luciferase activity in cell lysates was measured with a Berthold luminometer after addition of luciferin and ATP. Transfection efficiency was determined using the Rous sarcoma virus-β-gal construct. Data are expressed as the ratio of luciferase activity to β-gal activity.
# [2] = system: GR (glucocorticoid receptor) protein; experiment: Western blot, induction of GR degradation; conditions: AtT-20 cells
# Procedure: (§1) AtT-20 cells were treated with (A) 17-AAG, (B) silibinin, or (C) novobiocin. At the end of the treatment, the GR, Cdk1 and actin proteins were detected by Western blot.
# (§2) AtT-20 cells in 6-well plates were treated with different HSP90 inhibitors for the times indicated in each experiment. At the end of the treatment, cell lysates were prepared in lysis buffer supplemented with protease and phosphatase inhibitor cocktail (Roche). Samples of the lysates were separated by PAGE and blotted onto membranes using standard western blot procedures with gels and buffers from Invitrogen. After blocking the membranes with 5% non-fat dry milk, primary antibodies against GR (H-300, Santa Cruz), Cdk1 (BD Transduction Laboratories), and actin (Cell Signalling) were added. Anti-mouse and anti-rabbit horseradish peroxidase-conjugated secondary antibodies were used to detect the primary antibodies. The detection was carried out using Lumilight (Roche) or ECL-Plus (Thermo Scientific).
# [3] = system: GH3 somatotroph adenoma cells; experiment: Evaluation of growth hormone secretion (RIA); conditions: 48 hours
# Procedure: (§3) 10,000 GH3 somatotroph adenoma cells obtained from the American Type Culture Collection (Rockville, Md.) were seeded onto 96-well plates in DMEM with 10% fetal calf serum. After 24 hours the medium was changed and the attached cells were treated with different doses of the HSP90 inhibitors 17-AAG or silibinin, as indicated in the FIG. 11. After 48 hours, culture supernatants were collected and the concentration of growth hormone was measured by RIA.
# GH3 prolactinoma cells = experiment: Evaluation of prolactin secretion (RIA); conditions: 48 hours
# Procedure: as §3, with “prolactinoma” for “somatotroph adenoma”, “in” for “in the”, “10.” for “11.”, “prolactin” for “growth hormone”
# Cdk1 = experiment: Western blot, Cdk1 degradation; conditions: AtT-20 cells
# Procedure: as §1, §2
# AtT-20 cells = experiment: Evaluation of ACTH secretion (RIA); conditions: for ACTH secretion: 48 hours, plus dexamethasone 100 nM
# Procedure: AtT-20 cells were treated for 48 hours with the glucocorticoid dexamethasone (100 nM) plus different doses of 17-AAG or silibinin, as indicated in the figure. At the end of the treatment, ACTH was measured by RIA.
# AtT-20 cells were treated for 72 hours with 10 μM silibinin in combination with different doses of octreotide, as indicated in the figure.
# AtT-20 cells were seeded in 96-well plates in cell culture medium containing dexamethasone to mimic the high glucocorticoid concentration in the blood of patients with Cushing's disease. At the end of the treatment, the cell culture supernatants were collected and frozen. ACTH secreted into the cell culture medium was measured by radio-immunoassay (RIA) in comparison with known amounts of ACTH standards diluted in the same medium. […] The bound and free fractions were separated by centrifugation with charcoal and the radioactivity was measured in a beta-counter.
# [4] = system: corticotroph tumor cell line AtT-20; experiment: Proliferation assay (WST-1 assay); conditions: 96 hours treatment, different doses, WST-1, vs vehicle = 100%
# Procedure: AtT-20 cells were treated for 96 hours with different doses of (A) 17-AAG, (B) silibinin, or (C) novobiocin.
# Cell proliferation was measured with the WST-1 proliferation assay (Roche Applied Science). This assay measures the activity of the mitochondrial succinate dehydrogenase. After 4 days of treatment with different HSP90 inhibitors, the WST-1 reagent was added to AtT-20 cell cultures in 96-well plates to a final dilution of 1:10. The cells were incubated for 2 hours and then the absorbance of the reaction product was measured with an ELISA reader at 440 nm, following the manufacturer's instructions.
# GH3 cells = experiment: Cell-viability assay WST-1 (toxicity)
# [5] = WST-1, growth hormone experiment (Example 07)
# [6] = WST-1, prolactin experiment (Example 06)
Compound,transcriptional activity of GR [1],GR degradation [2],growth hormone secretion [3],prolactin secretion (GH3 prolactinoma cells),Cdk1 degradation (Cdk1),ACTH secretion (AtT-20 cells),"ACTH secretion in combination with octreotide (AtT-20 cells; 72 hours, 10 μM silibinin plus sub-optimal concentrations of octreotide)",proliferation of AtT-20 cells [4],toxicity for GH3 cells (GH3 cells; [5]),toxicity for GH3 cells (GH3 cells; [6])
"COc1cc([C@H]2Oc3cc([C@H]4Oc5cc(O)cc(O)c5C(=O)[C@@H]4O)ccc3O[C@@H]2CO)ccc1O [silibinin, (2R,3R)-3,5,7-trihydroxy-2-[(2R,3R)-3-(4-hydroxy-3-methoxyphenyl)-2-(hydroxymethyl)-2,3-dihydrobenzo[b][1,4]dioxin-6-yl]chroman-4-one]",increased the transcriptional activity of GR,did not produce this effect,significantly inhibited the secretion of growth hormone,significantly inhibited the secretion of prolactin,induce degradation of Cdk1,inhibits ACTH secretion,increases the inhibition of ACTH secretion,strongly inhibit the proliferation,"no toxicity was observed, even at high concentrations","no toxicity was observed, even at high concentrations"
CO[C@@H]1[C@@H](OC(N)=O)[C@@H](O)[C@H](Oc2ccc3c(O)c(NC(=O)c4ccc(O)c(CC=C(C)C)c4)c(=O)oc3c2C)OC1(C)C [novobiocin],increased the transcriptional activity of GR,did not produce this effect,–,–,induce degradation of Cdk1,–,–,strongly inhibit the proliferation,–,–
"C=CCNC1=C2C[C@@H](C)C[C@H](OC)[C@H](O)[C@@H](C)/C=C(\C)[C@H](OC(N)=O)[C@@H](OC)/C=C\C=C(/C)C(=O)NC(=CC1=O)C2=O [17-AAG, 17-N-Allylamino-17-demethoxygeldanamycin]",inhibited this activity,induces GR degradation,did not inhibit growth hormone secretion at any of the tested concentrations,minimally inhibited prolactin secretion only at a concentration of 1 μM,induce degradation of Cdk1,has no effect on ACTH secretion,–,strongly inhibit the proliferation,Higher concentrations of 17-AAG were toxic,Higher concentrations of 17-AAG were toxic
